For series [1], the target named is T1, Acetylcholinesterase (Homo sapiens, UniProt P22303). The experiment in a line: Inhibition of human recombinant AChE using acetylthiocholine iodide as substrate after 20 mins by Ellmans method.
In series [2] the target is Glutamate NMDA receptor; GRIN1/GRIN2A (Homo sapiens, UniProt Q05586+Q12879). Nature of the series: Inhibition of NMDA receptor (unknown origin) at 100 mV. Type of series: protein-complex assay.
In series [3] the target is T2, Amyloid-beta precursor protein (Homo sapiens, UniProt P05067). The experiment in a line: Inhibition of self-mediated amyloid beta (1 to 42) aggregation (unknown origin) at 10 uM after 24 hrs by thioflavin T fluorometric assay.
T2 sequence (P05067 whole entry): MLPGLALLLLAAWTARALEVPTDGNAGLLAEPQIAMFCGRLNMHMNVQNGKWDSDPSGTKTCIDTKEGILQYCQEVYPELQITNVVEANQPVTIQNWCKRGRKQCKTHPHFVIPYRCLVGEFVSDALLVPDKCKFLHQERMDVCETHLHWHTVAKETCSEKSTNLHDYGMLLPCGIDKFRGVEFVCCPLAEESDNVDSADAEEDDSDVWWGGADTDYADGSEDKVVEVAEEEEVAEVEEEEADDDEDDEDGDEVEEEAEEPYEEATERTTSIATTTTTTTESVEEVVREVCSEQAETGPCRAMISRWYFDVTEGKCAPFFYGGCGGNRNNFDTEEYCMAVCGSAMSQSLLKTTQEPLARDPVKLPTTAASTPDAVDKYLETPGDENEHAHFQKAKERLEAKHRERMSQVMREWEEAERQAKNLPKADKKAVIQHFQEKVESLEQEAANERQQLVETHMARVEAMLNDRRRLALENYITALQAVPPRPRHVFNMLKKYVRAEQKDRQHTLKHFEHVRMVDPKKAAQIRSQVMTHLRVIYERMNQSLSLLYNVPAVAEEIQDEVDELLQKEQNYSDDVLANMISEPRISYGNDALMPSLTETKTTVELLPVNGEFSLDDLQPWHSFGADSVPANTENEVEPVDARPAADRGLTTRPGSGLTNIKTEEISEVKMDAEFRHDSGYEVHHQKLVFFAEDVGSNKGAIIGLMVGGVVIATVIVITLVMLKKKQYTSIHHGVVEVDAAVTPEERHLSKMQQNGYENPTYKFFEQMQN
The target in series [4] is T1, Acetylcholinesterase. The experiment in a line: Inhibition of human recombinant AChE using acetylthiocholine iodide as substrate after 20 mins by Ellmans method relative to dimebon. In general terms: Ellman's reagent forms a yellow product with free thiols.
Series [5] can be described thus: Inhibition of parasite-specific trypanothione reductase.
Series [6] in a line: Inhibition of Trypanosoma brucei GAPDH.
Series [7] is described as follows: Selectivity index, ratio of ED50 for mammalian cells to ED50 for Trypanosoma brucei rhodesiense. The format is toxicity. The following applies: read-out: Ratio ED50.
Series [8] relates to Trypanosoma brucei rhodesiense. Nature of the series: Antitrypanosomal activity against bloodstream forms of Trypanosoma brucei rhodesiense. Type of series: functional. To be noted: read-out: ED50 (the source's name).
The target of series [9] is T2, Amyloid-beta precursor protein. The experiment in a line: Inhibition of self-mediated amyloid beta (1 to 42) aggregation (unknown origin) after 24 hrs by thioflavin T fluorometric assay.
Another series relates to Trypanosoma brucei. Nature of the series: Antitrypanosomal activity against Trypanosoma brucei. Type of series: functional, organism-based.
For the next series, the system named is L6. Nature of the series: Cytotoxicity against rat L6 cells. The format is cell-based.

Activity calls are given as the source filed them. The calls are words filed in the database; no cut-off is given here.

Glutamate NMDA receptor; GRIN1/GRIN2A, sequence (Q12879 whole entry, other chains not shown): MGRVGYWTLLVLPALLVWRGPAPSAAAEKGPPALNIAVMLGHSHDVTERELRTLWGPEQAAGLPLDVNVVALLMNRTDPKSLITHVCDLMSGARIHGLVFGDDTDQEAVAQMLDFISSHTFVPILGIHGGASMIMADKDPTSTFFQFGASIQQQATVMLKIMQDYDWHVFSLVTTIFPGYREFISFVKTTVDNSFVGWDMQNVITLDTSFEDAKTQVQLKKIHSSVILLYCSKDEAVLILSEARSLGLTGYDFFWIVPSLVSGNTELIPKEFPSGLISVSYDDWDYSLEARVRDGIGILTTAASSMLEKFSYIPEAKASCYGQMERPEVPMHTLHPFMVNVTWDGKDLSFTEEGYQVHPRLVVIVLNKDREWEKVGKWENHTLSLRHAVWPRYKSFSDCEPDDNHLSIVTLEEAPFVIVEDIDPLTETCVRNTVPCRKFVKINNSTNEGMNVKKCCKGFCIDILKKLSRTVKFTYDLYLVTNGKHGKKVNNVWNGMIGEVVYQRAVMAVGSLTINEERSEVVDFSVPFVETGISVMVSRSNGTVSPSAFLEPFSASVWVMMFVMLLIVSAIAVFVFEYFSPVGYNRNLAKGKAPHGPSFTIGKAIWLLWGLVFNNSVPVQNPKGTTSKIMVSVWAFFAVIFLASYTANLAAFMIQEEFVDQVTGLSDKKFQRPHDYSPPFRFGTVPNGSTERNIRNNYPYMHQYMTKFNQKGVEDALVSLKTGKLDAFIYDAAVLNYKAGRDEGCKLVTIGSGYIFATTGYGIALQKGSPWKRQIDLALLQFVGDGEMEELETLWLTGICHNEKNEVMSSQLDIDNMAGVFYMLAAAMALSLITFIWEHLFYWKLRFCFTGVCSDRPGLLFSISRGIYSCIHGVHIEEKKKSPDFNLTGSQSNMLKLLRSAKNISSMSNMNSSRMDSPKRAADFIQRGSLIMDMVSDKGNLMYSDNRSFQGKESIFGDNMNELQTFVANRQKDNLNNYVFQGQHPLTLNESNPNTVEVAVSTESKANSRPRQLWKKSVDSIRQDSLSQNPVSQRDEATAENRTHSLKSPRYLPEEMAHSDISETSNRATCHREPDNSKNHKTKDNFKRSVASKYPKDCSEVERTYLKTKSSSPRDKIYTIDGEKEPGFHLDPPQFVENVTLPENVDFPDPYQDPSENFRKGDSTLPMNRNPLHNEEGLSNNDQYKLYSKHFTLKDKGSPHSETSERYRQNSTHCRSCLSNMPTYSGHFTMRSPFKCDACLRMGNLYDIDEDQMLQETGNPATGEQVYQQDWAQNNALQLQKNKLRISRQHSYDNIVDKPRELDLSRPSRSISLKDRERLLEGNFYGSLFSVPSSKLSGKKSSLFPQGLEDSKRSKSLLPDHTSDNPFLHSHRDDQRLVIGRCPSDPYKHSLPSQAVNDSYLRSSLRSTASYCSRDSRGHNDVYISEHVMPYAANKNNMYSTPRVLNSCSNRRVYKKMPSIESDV
T1 sequence (P22303 whole entry): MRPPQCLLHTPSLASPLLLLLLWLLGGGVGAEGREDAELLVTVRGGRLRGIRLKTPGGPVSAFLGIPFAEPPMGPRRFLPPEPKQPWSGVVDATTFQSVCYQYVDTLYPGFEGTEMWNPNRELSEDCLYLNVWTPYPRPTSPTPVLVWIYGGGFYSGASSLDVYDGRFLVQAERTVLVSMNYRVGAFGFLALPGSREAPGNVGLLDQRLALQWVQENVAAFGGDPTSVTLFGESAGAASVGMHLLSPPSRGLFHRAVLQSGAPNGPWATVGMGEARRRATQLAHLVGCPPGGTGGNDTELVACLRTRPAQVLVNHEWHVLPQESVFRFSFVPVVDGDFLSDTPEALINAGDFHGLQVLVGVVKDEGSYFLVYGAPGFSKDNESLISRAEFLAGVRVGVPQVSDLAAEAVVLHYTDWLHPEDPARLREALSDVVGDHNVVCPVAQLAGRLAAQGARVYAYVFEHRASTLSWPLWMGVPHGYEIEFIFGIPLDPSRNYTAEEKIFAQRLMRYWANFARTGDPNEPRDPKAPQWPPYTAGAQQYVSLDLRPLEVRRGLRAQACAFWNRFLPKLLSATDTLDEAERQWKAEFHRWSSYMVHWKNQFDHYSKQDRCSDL

The term IC50 denotes the concentration that inhibits the measured activity by half. In general, inhibition refers to the drop in the measured response relative to a control, in per cent. For the molecule `Cc1ccc2[nH]c3c(c2c1)CN(CCCCCCCN1CCc2[nH]c4ccc(C)cc4c2C1)CC3`, the results for the IC50 (at Acetylcholinesterase [1]; in series [2]) were 690 nM and 12600 nM, respectively. The inhibition in [3] stood at 35.2%. Moreover, at Acetylcholinesterase [4], the fold change (FC) came to 128.
The Ki is a measure of affinity in units of concentration, obtained from inhibition or displacement. Low readings indicate a stronger hold on the target, high ones a looser hold on the target. Consider `CN(C)CCOc1cc2ccc(OC3=CC(=O)c4cc5ccccc5cc4C3=O)cc2oc1=O`, for which, in [5], the Ki was 2700 nM. The molecule also displayed an IC50 in series [6] of 5400 nM.
In the case of `O=C1C=C(Oc2ccccc2)C(=O)c2ccccc21`, the selectivity ratio in [7] came to 74. In addition, the EC50 in series [8] stood at 80 nM.
For `CCN(CCCCCCNC1=CC(=O)C(NCCCCCCN(CC)Cc2ccccc2OC)=CC1=O)Cc1ccccc1OC` [MEMOQUIN], the IC50 at Acetylcholinesterase [1] is 15400 nM.
Consider `O=C(Cc1ccccc1Nc1c(Cl)cccc1Cl)NCCCNCCCNC1=CC(=O)C(NCCCNCCCNC(=O)Cc2ccccc2Nc2c(Cl)cccc2Cl)=CC1=O`, for which the IC50 on Acetylcholinesterase [1] came to 600 nM; in [9] it was 3110 nM.
As for `Cc1ccc2c(c1)c1c(n2CCc2ccc(C)nc2)CCN(C)C1` [LATREPIRDINE], half-maximal inhibition in series [2] (IC50) was put at 13900 nM. For the same molecule, the inhibition entry in series [3] is “inactive”.
Take `CN(C)CCCOc1ccc2oc(=O)c(-c3ccc(OC4=CC(=O)c5cc6ccccc6cc5C4=O)cc3)cc2c1`: the EC50 with Trypanosoma brucei was 26 nM. Moreover, in the series with L6, the Activity came to 7.95 µM.
As for `Cc1ccc2[nH]c3c(c2c1)CN(CCCCCCN1CCc2[nH]c4ccc(C)cc4c2C1)CC3`, the figures for the IC50 (at Acetylcholinesterase [1]; in [2]) were 190 nM and 11000 nM, respectively. Further, the inhibition in [3] amounted to 35.6%. The fold change (FC) on Acetylcholinesterase [4] is 128.

Values taken from ChEMBL document CHEMBL3585239, “Two diseases, one approach: multitarget drug discovery in Alzheimer's and neglected tropical diseases” (Medchemcomm, 2014).
